Measured values: US3933793A, “Therapeutically active 2-aminoalkylthio-3H-1.5-benzodiazepines and process for preparing them” (Recordati S.A. Chemical and Pharmaceutical Company, priority 1971, dated 1976)
In brackets after ≈: the same amount, converted by molar mass. Where a name gives a salt, the structure may show the parent alone.

Columns and labels:
[1] = test system: influenza A virus (PR8 strain); type: in vivo; details: 0.5 MTD in 10 ml buffered saline with virus, 1 hour at 37°C
[2] = test system: Escherichia coli 100; assay: Antibacterial activity, minimum inhibitory concentration; details: Escherichia coli, 100, 18 h, read-out: minimum inhibitory concentration, B. coli
Description: (§1) The antibacterial activity of some of the 3H-1,5-benzodiazepines having the general formula I was tested on the following microorganisms:
(§2) Escherichia coli 100, Bacillus subtilis ATCC 9466, Micrococcus pyogenes SG-511, grown in Difco nutritive gelatin; Streptococcus pyogenes A 88 grown in Difco "Brain heart infusion agar" gelatin with 5 percent difibrinated Guinea pig blood.
(§3) The results were read after 18 hours incubation at 35°-37°C.

[3] = test system: Bacillus subtilis ATCC 9466; assay: as above; details: ATCC9466, 18 h, read-out: minimum inhibitory concentration, B. subtilis
Description: as §1, §2, §3

[4] = test system: Micrococcus pyogenes SG-511; assay: as above; details: Staphylococcus aureus, SG511, 18 h, read-out: minimum inhibitory concentration, M. pyogenes
Description: as §1, §2, §3

[5] = test system: Streptococcus pyogenes A 88; assay: as above; details: A88, 18 h, read-out: minimum inhibitory concentration, S. pyogenes
Description: as §1, §2, §3

Row | SMILES | APR8: difference between logarithms of EID95 of controls and of treated eggs [1] | MIC [2] [µg/mL] | MIC [3] [µg/mL] | MIC [4] [µg/mL] | MIC [5] [µg/mL]
1 | C[N+]1(CCCSC2=Nc3ccccc3N=C(c3ccc(Sc4ccccc4)cc3)C2)CCCC1 [Compound 38, 2,gamma,N-pyrrolidinopropylthio-4,p-phenylthiophenyl-3H-1,5-benzodiazepine iodomethylate] | 3 | 160 | 10 | 2.5 | 10
2 | CCN(CC)CCCSC1=Nc2ccccc2N=C(c2ccc(Sc3ccccc3)cc2)C1 [Compound 39, 2,gamma,N-diethylaminopropylthio-4,p-phenylthiophenyl-3H-1,5-benzodiazepinecitrate] | 3 | – | 10 (≈ 21.1 µM) | – | –
3 | CC[N+](C)(CC)CCCSC1=Nc2ccccc2N=C(c2ccc(Sc3ccccc3)cc2)C1 [Compound 40, 2,gamma,N-diethylaminopropylthio-4,p-phenylthiophenyl-3H-1,5-benzodiazepineiodomethylate] | 1 | 5 | 5 | – | 5
4 | CN(C)CCCSC1=Nc2ccccc2N=C(c2ccc(Sc3ccccc3)cc2)C1 [Compound 41, 2,gamma,N-dimethylaminopropylthio-4,p-phenylthiophenyl-3H-1,5-benzodiazepine.HCl] | > 3 | – | 10 | – | 1.25
5 | C[N+](C)(C)CCCSC1=Nc2ccccc2N=C(c2ccc(Sc3ccccc3)cc2)C1 [Compound 42, 2,gamma,N-dimethylaminopropylthio-4,p-phenylthiophenyl-3H-1,5-benzodiazepine iodomethylate] | 3 | 80 | 40 | – | –
6 | C[N+]1(CCSC2=Nc3ccccc3N=C(c3ccc(Sc4ccccc4)cc3)C2)CCCC1 [Compound 44, 2, beta,N-pyrrolidinoethylthio-4,p-phenylthiophenyl-3H-1,5-benzodiazepine iodomethylate] | 2 | 160 | 40 | – | –
7 | C[N+](C)(C)CCSC1=Nc2ccccc2N=C(c2ccc(Sc3ccccc3)cc2)C1 [Compound 46, 2,beta,N-dimethylaminoethylthio-4,p-phenylthiophenyl-3H-1,5-benzodiazepine iodomethylate] | 2 | 160 | 20 | – | –
8 | C[N+]1(CCSC2=Nc3ccccc3N=C(c3ccc(Sc4ccccc4)cc3)C2)CCCCC1 [Compound 48, 2,beta,N-piperidinoethylthio-4,p-phenylthiophenyl-3H-1,5-benzodiazepine iodomethylate] | > 4 | 80 | 10 | – | –
9 | C[N+]1(CCSC2=Nc3ccccc3N=C(c3ccc(Sc4ccccc4)cc3)C2)CCOCC1 [Compound 50, 2,beta,N-morpholinoethylthio-4,p-phenylthiophenyl-3H-1,5-benzodiazepine iodomethylate] | 2 | 160 | 10 | – | –
10 | CCN(CC)CCSC1=Nc2ccccc2N=C(c2ccc(C)cc2)C1 [Compound 66] | 1 | – | 40 (≈ 109 µM) | – | 80 (≈ 219 µM)
